Assay results taken from US12509431B2, “1,4-dihydroquinazolinone compounds and uses thereof” (Edgewise Therapeutics, Inc., priority 2022, dated 2025).

Assays:
Assay type in all cases: biochemical
Conditions in all cases: Table 8
[1] = tested on: Rabbit Skeletal myofibrils (rabbit psoas muscle); test: Myofibril ATPase assay (PK/LDH NADH-coupled), skeletal myofibrils
Method in brief: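 Rabbit psoas myofibrils in pCa (PIPES/CaCl2/EGTA, pH 7.0) buffer; ADP coupled via PK/LDH to NADH loss, read at 340 nm every 1.5–2 min for 75 min. Slopes normalized to vehicle (100%) and fit to 4-parameter logistic for EC25, plus EC50 for inhibitors.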

[2] = biological target: T1, Porcine Ventricle myofibrils (left ventricle of Yucatan minipigs) (Sus scrofa, UniProt P79293); test: Myofibril ATPase assay (PK/LDH NADH-coupled), ventricle myofibrils
T1 construct: Myofibrils from porcine cardiac muscle was isolated from the left ventricle of Yucatan minipigs; tissue Exemplar Genetics; host or cells: left ventricle of Yucatan minipigs
T1 sequence (P79293 whole entry): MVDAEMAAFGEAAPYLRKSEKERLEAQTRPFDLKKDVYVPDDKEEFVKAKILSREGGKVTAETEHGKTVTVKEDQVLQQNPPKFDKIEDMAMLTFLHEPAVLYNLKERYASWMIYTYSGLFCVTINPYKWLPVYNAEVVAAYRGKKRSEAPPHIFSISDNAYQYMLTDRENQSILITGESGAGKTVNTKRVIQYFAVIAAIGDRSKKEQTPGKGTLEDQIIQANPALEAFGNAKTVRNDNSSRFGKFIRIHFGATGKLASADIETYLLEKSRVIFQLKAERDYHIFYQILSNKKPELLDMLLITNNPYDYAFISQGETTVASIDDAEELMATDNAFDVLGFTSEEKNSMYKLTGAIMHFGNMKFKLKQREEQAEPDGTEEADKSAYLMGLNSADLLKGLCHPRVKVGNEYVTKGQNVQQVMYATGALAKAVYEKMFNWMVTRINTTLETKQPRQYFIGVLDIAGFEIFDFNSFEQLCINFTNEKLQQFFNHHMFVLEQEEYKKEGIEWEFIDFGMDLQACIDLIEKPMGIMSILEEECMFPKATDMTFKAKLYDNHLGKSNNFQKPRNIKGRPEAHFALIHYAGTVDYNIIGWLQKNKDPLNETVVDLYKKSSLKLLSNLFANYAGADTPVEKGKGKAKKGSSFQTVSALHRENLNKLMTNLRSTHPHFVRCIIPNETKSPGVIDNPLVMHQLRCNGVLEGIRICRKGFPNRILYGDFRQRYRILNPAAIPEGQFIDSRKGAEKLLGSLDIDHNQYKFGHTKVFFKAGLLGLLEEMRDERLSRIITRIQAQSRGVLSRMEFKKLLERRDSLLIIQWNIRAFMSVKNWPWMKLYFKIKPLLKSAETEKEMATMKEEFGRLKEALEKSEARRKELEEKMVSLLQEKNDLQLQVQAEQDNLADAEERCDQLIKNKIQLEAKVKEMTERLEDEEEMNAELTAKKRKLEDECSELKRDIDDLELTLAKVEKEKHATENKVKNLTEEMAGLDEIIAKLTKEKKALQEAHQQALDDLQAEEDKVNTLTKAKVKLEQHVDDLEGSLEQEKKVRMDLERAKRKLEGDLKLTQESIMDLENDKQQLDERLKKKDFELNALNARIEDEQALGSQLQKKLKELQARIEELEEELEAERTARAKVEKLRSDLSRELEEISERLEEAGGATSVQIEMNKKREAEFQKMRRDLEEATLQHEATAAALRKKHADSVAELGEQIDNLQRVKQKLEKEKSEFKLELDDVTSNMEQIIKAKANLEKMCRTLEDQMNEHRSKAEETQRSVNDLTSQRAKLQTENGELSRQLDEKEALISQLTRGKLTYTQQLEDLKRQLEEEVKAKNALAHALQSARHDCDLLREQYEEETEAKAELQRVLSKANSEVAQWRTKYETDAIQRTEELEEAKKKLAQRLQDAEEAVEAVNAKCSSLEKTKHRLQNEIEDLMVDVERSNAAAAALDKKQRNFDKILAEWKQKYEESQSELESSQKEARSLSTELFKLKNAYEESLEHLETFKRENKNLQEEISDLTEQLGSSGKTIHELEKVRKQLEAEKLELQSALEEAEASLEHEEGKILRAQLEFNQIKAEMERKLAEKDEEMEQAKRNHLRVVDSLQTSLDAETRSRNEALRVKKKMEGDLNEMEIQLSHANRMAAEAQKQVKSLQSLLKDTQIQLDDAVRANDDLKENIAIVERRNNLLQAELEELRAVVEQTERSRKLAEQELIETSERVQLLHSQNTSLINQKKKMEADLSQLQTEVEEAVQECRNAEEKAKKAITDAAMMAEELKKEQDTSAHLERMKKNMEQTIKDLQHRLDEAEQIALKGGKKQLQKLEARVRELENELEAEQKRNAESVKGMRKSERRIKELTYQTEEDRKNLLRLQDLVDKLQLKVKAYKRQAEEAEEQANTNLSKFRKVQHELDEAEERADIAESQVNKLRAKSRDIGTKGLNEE
Method in brief: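 Yucatan minipig left-ventricle myofibrils; ATPase measured by PK/LDH-coupled NADH loss at 340 nm, read every 1.5-2 min for 75 min. Slopes normalized to vehicle (100%) and fit to 4-parameter logistic model; EC25 and, for inhibitors, EC50 calculated.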

Porcine Atria myofibrils = test: Myofibril ATPase assay (PK/LDH NADH-coupled), atria myofibrils
Method in brief: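 Porcine atrial myofibril ATPase followed via PK/LDH-coupled NADH depletion, absorbance at 340 nm read every 1.5-2 min over 75 min. Slopes (mAU/min) normalized to vehicle as 100% and fit to a 4-parameter logistic; EC25% derived, plus EC50% for inhibitors.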

| Compound | Rabbit Psoas IC25 [1] | Porcine Ventricle IC25 [2] | Porcine Atria IC25 (Porcine Atria myofibrils) |
| --- | --- | --- | --- |
| C[C@H](NC(=O)[C@H](C)N1Cc2c(Br)cccc2NC1=O)c1ccc(F)cc1F [Compound B227] | 0.0127 µM | 0.2485 µM | 0.06 µM |
| C[C@H](NC(=O)[C@@H](C)N1Cc2c(Br)cccc2NC1=O)c1ccc(F)cc1F [Compound B228] | 0.2844 µM | 2.111 µM | 0.32 µM |
| C[C@H](NC(=O)CN1C(=O)Nc2ccccc2C12CC2)c1ccc(F)cc1F [Compound B229, N-[(1S)-1-(2,4-Difluorophenyl)ethyl]-2-{2′-oxo-1′H-spiro[cyclopropane-1,4′-quinazolin]-3′-yl}acetamide] | 0.0356 µM | 0.156 µM | 0.06 µM |
| C[C@H](NC(=O)CN1Cc2cc(F)ccc2NC1=O)c1ncc(F)cc1F [Compound B230] | 0.182 µM | 1.835 µM | 0.22 µM |
| C[C@H](NC(=O)CN1C(=O)Nc2ccc(F)cc2[C@H]1C(F)(F)F)c1ccc(F)cc1F [Compound B235] | 100 µM | 100 µM | 1.15 µM |
| C[C@H](NC(=O)[C@@H](C)N1Cc2c(ccc(F)c2F)NC1=O)c1ccc(F)cc1F [Compound B236] | 0.0333 µM | 0.2316 µM | 0.03 µM |
| C[C@H](NC(=O)[C@H](C)N1Cc2c(ccc(F)c2F)NC1=O)c1ccc(F)cc1F [Compound B237] | 0.3164 µM | 8.122 µM | 0.28 µM |
| C[C@H](NC(=O)CN1Cc2c(ccc(F)c2F)NC1=O)c1ccc(F)cc1F [Compound B238] | 0.0116 µM | 0.1435 µM | 0.03 µM |
| C[C@@H](NC(=O)[C@H](C)N1Cc2cc(F)ccc2NC1=O)c1ccc(F)cc1F [Compound B239] | 7.191 µM | 100 µM | 100.00 µM |
| C[C@H](C(=O)N[C@H](C)c1ccc(F)cc1F)N1Cc2cc(F)ccc2NC1=O [Compound B240] | 0.8825 µM | 100 µM | 25.37 µM |
| C[C@H](NC(=O)[C@@H](C)N1Cc2cc(F)ccc2NC1=O)c1ccc(F)cc1F [Compound B241] | 0.034 µM | 1.243 µM | 0.11 µM |
| C[C@H](NC(=O)[C@H](C)N1Cc2cc(F)ccc2NC1=O)c1ccc(F)cc1F [Compound B242] | 0.3555 µM | 100 µM | 58.71 µM |
| CC(C(=O)N[C@@H](C)c1ccc(F)cc1F)N1Cc2ccccc2NC1=O (stereo partly drawn) [Compound B243] | 10.96 µM | 11.52 µM | 0.19 µM |
| CC1c2ccccc2NC(=O)N1CC(=O)N[C@@H](C)c1ccc(F)cc1F (stereo partly drawn) [Compound B244, N-[(1S)-1-(2,4-Difluorophenyl)ethyl]-2-(4-methyl-2-oxo-1,4-dihydroquinazolin-3-yl)acetamide] | 0.695 µM | 4.818 µM | 2.50 µM |
| C[C@H](NC(=O)CN1C(=O)Nc2ccccc2C1(C)C)c1ccc(F)cc1F [Compound B245] | 9.295 µM | 11.66 µM | 0.94 µM |
| C[C@H](NC(=O)CN1C(=O)Nc2ccccc2C12CCCCC2)c1ccc(F)cc1F [Compound B246] | 19.62 µM | 73.7 µM | 100.00 µM |
| C[C@H](NC(=O)CN1Cc2c(F)cccc2NC1=O)c1ccc(F)cc1F [Compound B248, N-[(1S)-1-(2,4-Difluorophenyl)ethyl]-2-(5-fluoro-2-oxo-1,4-dihydroquinazolin-3-yl)acetamide] | 0.062 µM | 0.2832 µM | 0.05 µM |
| C[C@H](NC(=O)CN1Cc2ccccc2NC1=O)c1ccc(F)cc1F [Compound B249, N-[(1S)-1-(2,4-difluorophenyl)ethyl]-2-(2-oxo-1,4-dihydroquinazolin-3-yl)acetamide] | 0.02766 µM | 0.6589 µM | 0.07 µM |
| C[C@@H](NC(=O)CN1Cc2c(ccc(F)c2F)NC1=O)c1ncc(C(N)=O)cc1O [Compound B250] | 36.83 µM | 60.47 µM | 81.49 µM |
| C[C@@H](NC(=O)CN1Cc2cc(CN(C)C)ccc2NC1=O)c1ncc(C#N)cc1F [Compound B251] | 100.00 µM | 100.00 µM | 8.81 µM |

| Compound | Rabbit Psoas IC25 [1] | Porcine Ventricle IC25 [2] | Porcine Atria IC25 (Porcine Atria myofibrils) |
| --- | --- | --- | --- |
| C[C@H](NC(=O)CN1Cc2cc(CN(C)C)ccc2NC1=O)c1ncc(C#N)cc1F [Compound B252] | 36.83 µM | 60.47 µM | 81.49 µM |
| CNC(=O)N1CC2(C1)c1cc(F)ccc1NC(=O)N2CC(=O)N[C@H](C)c1ncc(C#N)cc1F [Compound B253] | 86.41 µM | 100.00 µM | 100.00 µM |
| CNC(=O)N1CC2(C1)c1cc(F)ccc1NC(=O)N2CC(=O)N[C@@H](C)c1ncc(C#N)cc1F [Compound B254] | 100.00 µM | 100.00 µM | 100.00 µM |
| CC(=O)N1CC2(C1)c1cc(F)ccc1NC(=O)N2CC(=O)N[C@H](C)c1ncc(C#N)cc1F [Compound B255] | 100.00 µM | 100.00 µM | 100.00 µM |
| CC(=O)N1CC2(C1)c1cc(F)ccc1NC(=O)N2CC(=O)N[C@@H](C)c1ncc(C#N)cc1F [Compound B256] | 39.41 µM | 46.27 µM | 75.74 µM |
| C[C@@H](NC(=O)CN1Cc2c(ccc(F)c2F)NC1=O)c1ncc(-n2ncnn2)cc1F [Compound B264] | 100.00 µM | 0.89 µM | 0.52 µM |
| C[C@H](NC(=O)CN1Cc2c(ccc(F)c2F)NC1=O)c1ncc(-n2ncnn2)cc1F [Compound B265] | 100.00 µM | 5.36 µM | 1.88 µM |
| C[C@@H](NC(=O)C(C)(C)N1Cc2c(ccc(F)c2F)NC1=O)c1ncc(C#N)cc1F [Compound B266] | 0.95 µM | 1.38 µM | 0.05 µM |
| C[C@H](NC(=O)C(C)(C)N1Cc2c(ccc(F)c2F)NC1=O)c1ncc(C#N)cc1F [Compound B267] | 18.40 µM | 3.96 µM | 0.18 µM |
| C[C@@H](NC(=O)C1(N2Cc3c(ccc(F)c3F)NC2=O)CC1)c1ncc(C#N)cc1F [Compound B268] | 6.91 µM | 3.06 µM | 0.11 µM |
| C[C@@H](NC(=O)CN1Cc2c(ccc(F)c2F)NC1=O)c1cc2cccnc2cn1 [Compound B270] | 100.00 µM | 100.00 µM | 1.18 µM |
| C[C@H](NC(=O)CN1Cc2c(ccc(F)c2F)NC1=O)c1cc2cccnc2cn1 [Compound B271] | 100.00 µM | 55.13 µM | 100.00 µM |
| C[C@@H](NC(=O)[C@H](C)N1Cc2c(ccc(F)c2F)NC1=O)c1ncc(C#N)cc1F [Compound B272] | 0.74 µM | 0.75 µM | 0.05 µM |
| C[C@H](C(=O)N[C@H](C)c1ncc(C#N)cc1F)N1Cc2c(ccc(F)c2F)NC1=O [Compound B273] | 1.57 µM | 22.58 µM | 1.96 µM |
| C[C@@H](NC(=O)CN1Cc2c(ccc(F)c2F)NC1=O)c1ccc2cnccc2n1 [Compound B274] | 100.00 µM | 95.97 µM | 1.10 µM |
| C[C@H](NC(=O)CN1Cc2c(ccc(F)c2F)NC1=O)c1ccc2cnccc2n1 [Compound B275] | 100.00 µM | 100.00 µM | 8.27 µM |
| C[C@@H](NC(=O)CN1Cc2cc3c(cc2NC1=O)OCCO3)c1ncc(C#N)cc1F [Compound B276] | 30.80 µM | 23.74 µM | 100.00 µM |
| C[C@H](NC(=O)CN1Cc2cc3c(cc2NC1=O)OCCO3)c1ncc(C#N)cc1F [Compound B277] | 100.00 µM | 73.20 µM | 77.49 µM |
| C[C@H](NC(=O)[C@H](C)N1Cc2c(ccc(F)c2F)NC1=O)c1ncc(C#N)cc1F [Compound B278] | 0.03 µM | 0.09 µM | 0.03 µM |
| C[C@H](NC(=O)[C@@H](C)N1Cc2c(ccc(F)c2F)NC1=O)c1ncc(C#N)cc1F [Compound B279] | 0.57 µM | 0.70 µM | 0.11 µM |
